Measurements published in PMC9840614, “A gain-of-function TPC2 variant R210C increases affinity to PI(3,5)P2 and causes lysosome acidification and hypopigmentation” (Nature Communications, 2023).

What was measured:
Format in all cases: cell-based
[1] = biological target: T1, Two Pore Channel 2 (TPC2), R210C (Homo sapiens, UniProt Q8NHX9, R210C); assay: whole-endolysosome patch clamp, HEK293 vacuoles, […]
T1 construct: gene TPCN2; EGFP-TPC2 R210C

[2] = biological target: T2, Two Pore Channel 2 (TPC2) (Homo sapiens, UniProt Q8NHX9, L11A/L12A); assay: inside-out patch clamp, HEK293, concentration response
T2 construct: gene TPCN2; EGFP-tagged plasma membrane-targeted TPC2 L11A/L12A
T2 sequence (Q8NHX9 whole entry L11A/L12A): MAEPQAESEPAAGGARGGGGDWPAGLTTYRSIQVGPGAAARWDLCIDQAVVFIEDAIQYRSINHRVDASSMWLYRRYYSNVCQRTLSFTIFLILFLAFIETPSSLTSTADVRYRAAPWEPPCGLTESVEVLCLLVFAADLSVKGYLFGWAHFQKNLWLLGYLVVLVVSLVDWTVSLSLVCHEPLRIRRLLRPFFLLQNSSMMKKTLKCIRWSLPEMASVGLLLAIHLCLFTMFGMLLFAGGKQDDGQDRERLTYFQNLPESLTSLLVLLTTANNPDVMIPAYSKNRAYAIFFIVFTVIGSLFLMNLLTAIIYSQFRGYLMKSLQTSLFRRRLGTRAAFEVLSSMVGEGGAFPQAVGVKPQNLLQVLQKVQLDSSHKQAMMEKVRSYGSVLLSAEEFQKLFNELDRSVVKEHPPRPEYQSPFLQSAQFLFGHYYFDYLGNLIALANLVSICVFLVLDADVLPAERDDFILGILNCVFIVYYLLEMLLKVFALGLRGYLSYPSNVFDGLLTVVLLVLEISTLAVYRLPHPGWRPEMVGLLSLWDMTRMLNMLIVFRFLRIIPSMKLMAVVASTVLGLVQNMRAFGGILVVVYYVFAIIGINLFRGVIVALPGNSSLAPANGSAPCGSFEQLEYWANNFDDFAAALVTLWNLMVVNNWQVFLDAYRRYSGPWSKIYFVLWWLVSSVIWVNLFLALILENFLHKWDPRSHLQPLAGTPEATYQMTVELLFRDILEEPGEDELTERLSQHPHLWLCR

[3] = biological target: T3, Two Pore Channel 2 (TPC2), R210A (Homo sapiens, UniProt Q8NHX9, R210A); assay: channel activation EC50 (n = […], data not shown in figures)
T3 construct: gene TPCN2
T3 sequence (Q8NHX9 whole entry R210A): as the sequence (Q8NHX9 whole entry L11A/L12A) above, with A11L, A12L, R210A counted along it

[4] = biological target: T4, Two Pore Channel 2 (TPC2), R210C (Homo sapiens, UniProt Q8NHX9, L11A/L12A/R210C); assay: inside-out patch clamp, HEK293, concentration response
T4 construct: gene TPCN2; EGFP-tagged plasma membrane-targeted TPC2 L11A/L12A
T4 sequence (Q8NHX9 whole entry L11A/L12A/R210C): as the sequence (Q8NHX9 whole entry L11A/L12A) above, with R210C counted along it

T1 sequence (Q8NHX9 whole entry R210C): as the sequence (Q8NHX9 whole entry L11A/L12A) above, with A11L, A12L, R210C counted along it

SMILES | whole-endolysosome patch clamp, HEK293 vacuoles, 100 nM [1] | EC50 [2] | EC50 [3] | EC50 [4]
COc1ccc([C@H]2N[C@H](C(=O)O)Cc3c2[nH]c2ccccc32)cc1CN1CCN(c2ccccc2F)CC1 [Ned-19] | Ned-19 inhibited the R210C currents at both potentials with fast kinetics |  |  | 
CCCCCCCC(=O)OC[C@H](COP(=O)(O)O[C@@H]1[C@H](O)[C@H](OP(=O)(O)O)[C@@H](O)[C@H](OP(=O)(O)O)[C@H]1O)OC(=O)CCCCCCC [PI(3,5)P2-diC8] |  | 209 ± 19.2 nM | 19.4 ± 0.74 nM | 2.27 ± 0.25 nM
